Experimental data as given in patent US8759481B2, “Peptide vaccines for cancers expressing tumor-associated antigens” (Oncotherapy Science, Inc., priority 2007, dated 2014).
“Also recorded” adds a separate entry of the source. Ends that are not written are not given here.

Tests used:
Format in all cases: cell-based, human
[1] = system: peptide-pulsed A24-LCL cells; assay: CTL line establishment, IFN-gamma ELISA; details: HLA-A24 peptides; vs target without peptide pulse
In short: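 Peptide-pulsed A24-LCL or T2 cells (1×10^4/well) served as stimulators for responder cells from 48-well cultures or limiting-dilution CTL clones. Positive wells scored by IFN-gamma ELISPOT; CTL line establishment from positive wells confirmed by IFN-gamma ELISA; lines expanded with anti-CD3 (40 ng/ml), IL-2 and MMC-inactivated B-LCL feeders.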

[2] = system: peptide-pulsed A24-LCL cells; assay: IFN-gamma ELISPOT assay (positive wells); details: HLA-A24 peptides; as compared to the control
In short: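 PBMC-derived DCs from HLA-A*2402 and/or A*0201 donors, pulsed with 20 micro g/ml peptide plus 3 micro g/ml beta 2-microglobulin, stimulated autologous CD8+ T cells three times (days 0, 7, 14). On day 21, responders were tested against peptide-pulsed A24-LCL or T2 cells by IFN-gamma ELISPOT. Values are reported as positive wells/wells tested; CTL lines confirmed by ELISA.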

[3] = system: COS7 transfected with full length ECT2 gene and HLA-A*2402; assay: Specific CTL activity against transfected target cells; details: CTL clone or line raised by the peptide, vs control transfectants
Method: (§1) Briefly, peptide-pulsed A24-LCL or T2 cell (1×10^4/well) was prepared as stimulator cells. Cultured Cells in 48 wells or CTL clones after limiting dilution were used as responder cells. IFN-gamma ELISPOT assay and ELISA assay were performed under manufacture procedure.
(§2) The cDNA encoding an open reading frame of target genes or HLA-A02 or HLA-A24 was amplified by PCR. The PCR-amplified product was cloned into pcDNA3.1 myc-His vector (Invitrogen). The plasmids were transfected into the target cells, HLA-A02 and HLA-A24-null normal human cell line COS7 or 293T using lipofectamine (Invitrogen) according to the manufacturer's recommended procedures. Alternatively, the plasmid contained the target genes were transfected into A24-LCL by electroporation using GenePulserII (Biorad). Briefly, 2.5×10^6 A24-LCL cells were pulsed with 10 mcg prasmid at 140V and 1000 micro F. After 2 days from transfection, the transfected cells were treated with Cell dissociation solution and used as the target cells for CTL activity assay.
The established CTL line raised against these peptides were examined for their ability to recognize the target cells expressing ECT2 and HLA-A*2402. […] COS7 transfected with full length ECT2 but not HLA-A*2402 and COS7 transfected with HLA-A*2402 but not full length ECT2 (replaced other gene e.g. URLC10 or INHBB) were prepared as controls.

[4] = system: peptide-pulsed A24-LCL cells; assay: CTL clones by limiting dilution, specific CTL activity; details: HLA-A24 peptides; vs target without peptide pulse
Method: The dilutions were made to have 0.3, 1, and 3 CTLs/well in 96 round-bottomed micro titer plate (Nalge Nunc International). CTLs were cultured with 7×10^4 cells/well of 2 kinds of human B-lymphoblastoid cell lines, 30 ng/ml of anti-CD3 antibody, and 125 U/ml of IL-2 in total of 150 micro 1/well of AIM-V containing 5% AS. 50 micro 1/well of IL-2 was added to the medium 10 days later so that IL-2 became 125 U/ml in the final concentration. CTL activity of CTLs was tested on the 14th day, and CTL clones were expanded using the same method above.
as §1

[5] = system: COS7 transfected with full length CDH3 gene and HLA-A*2402; assay: Specific CTL activity against transfected target cells; details: CTL clones raised by the peptide, vs single transfectants
Method: as §1, §2
The established CTL line raised against these peptides were examined for their ability to recognize the target cells expressing CDH3 and HLA-A*2402. […] COS7 transfected with full length CDH3 but not HLA-A*2402 and COS7 transfected with HLA-A*2402 but not full length CDH3 were prepared as controls.

[6] = system: target cells pulsed with the peptide; assay: 51Cr release cytotoxicity assay
Method: (§3) Cytotoxic activity was evaluated by a four-hour ^51Cr release assay. The target cells were pulsed with a 20 micro g/mL concentration of peptide overnight. The target cells were labeled with 100 micro Ci of Na2^51CrO4 at 37 degrees C. for one hour, and then washed three times with RPMI1640. The target cells (1×10^4/100 micro L) and 100 micro L of effector cells at various numbers with a total volume of 200 micro L were placed into a round-bottomed 96-well microtiter plate (Corning), and cultured at 37 degrees C. in a CO2 incubator for four hours. After culturing, 100 micro L of the supernatant was collected from each well, and measured the radioactivity using a gamma counter. Spontaneous release was the radioactivity from the target cells with medium in the absence of effector cells, and maximum release was the radioactivity from the target cells with 1 M HCl.
(§4) The Percentage of specific cytotoxicity was determined by calculating as following formula: % Specific lysis=[(experimental release−spontaneous release)/(maximum release−spontaneous release)]×100. Results Enhanced CDH3, EPHA4, ECT2, HIG2, INHBB, KIF20A, KNTC2, TTK and URLC10 Expression in Cancers

[7] = system: MIAPaca2 cancer cell line; assay: 51Cr release cytotoxicity assay
Method: as §3, §4
Furthermore, Cytotoxic activity was performed by cytotoxicity assay according to the protocols set forth in the “Materials and Methods” section above. […]

Caki-1 cancer cell line = assay: 51Cr release cytotoxicity assay; details: Caki-1 expressing INHBB but not HLA-A02
Method: as §3, §4
(§5) Furthermore, Cytotoxic activity was examined by cytotoxicity assay according to the protocols set forth in the “Materials and Methods” section above.

[8] = system: COS7 transfected with full length KIF20A gene and HLA-A*2402; assay: Specific CTL activity against transfected target cells; details: CTL line or clone raised by the peptide, vs control transfectants
Method: as §1, §2
The established CTL line raised against these peptides were examined for their ability to recognize the target cells expressing KIF20A and HLA-A*2402. […]

PK59 cancer cell line = assay: 51Cr release cytotoxicity assay; details: PK59 expressing KIF20A but not HLA-A24
Method: as §3, §4, §5

peptide-pulsed T2 cells [9] = assay: CTL line establishment, IFN-gamma ELISA; details: HLA-A02 peptides; vs target without peptide pulse
In short: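 CTLs expanded with MMC-inactivated B-lymphoblastoid lines, 40 ng/ml anti-CD3 and IL-2 (120 IU/ml day 1, then 30 IU/ml on days 5, 8, 11). Peptide-pulsed T2 or A24-LCL stimulators (1×10^4/well) incubated with cultured wells or limiting-dilution clones as responders; IFN-gamma detected by ELISPOT (positive wells) and ELISA (established CTL lines).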

peptide-pulsed T2 cells [10] = assay: IFN-gamma ELISPOT assay (positive wells); details: HLA-A02 peptides; as compared to the control
In short: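 CD8+ T cells from HLA-A*2402 and/or HLA-A*0201 donors were stimulated 1:20 with autologous monocyte-derived DCs pulsed with 20 µg/ml peptide plus β2-microglobulin, in IL-7, with IL-2 added, restimulated on days 7 and 14. On day 21, IFN-γ ELISPOT against peptide-pulsed T2 or A24-LCL cells (1×10^4/well) scored wells as positive, with CTL lines confirmed by ELISA.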

[11] = system: COS7 transfected with full length HIG2 gene and HLA-A*0201; assay: Specific CTL activity against transfected target cells; details: CTL line raised by the peptide; vs control transfectants; listed as HIG2-A02-9-15
Method: as §1, §2
(§6) The established CTL line raised against these peptides were examined for their ability to recognize the target cells expressing HIG2 and HLA-A*0201. […] 293T or COS7 transfected with full length ECT2 but not HLA-A*0201 and 293T or COS7 transfected with HLA-A*0201 but not full length ECT2 (or replaced other gene e.g. FoxP3 or TTK) were prepared as controls.

[12] = system: 293T transfected with full length HIG2 gene and HLA-A*0201; assay: as above; details: CTL line raised by the peptide; vs control transfectants; listed as HIG2-A02-9-8
Method: as §1, §2, §6

How did the “Establishment of CTL line, specific CTL activity against the peptide-pulsed target determined by ELISA” value (shortened to “Establishment of CTL line”) [1] turn out when “DFQDsVFNDL (DFQDSVFNDL; not fully specified; printed as DFQDsVFNDL) [SEQ ID NO: 101]” was run?
Its value is “CTL lines were established”.

What about the “IFN-gamma production by IFN-gamma ELISPOT assay” value (shortened to “IFN-gamma production”) [2] of the same substance?
Its value is “potent IFN-gamma production”.

What about the “Specific CTL activity against COS7 transfected with both ECT2 and HLA-A24” value ([3]; listed as ECT2-A24-10-101) of the same substance?
Its value is “highest specific CTL activity; also recorded: high specific CTL activity”.

Which “Establishment of CTL line” value [1] does the source give for “DYLNeWGSRF (DYLNEWGSRF; not fully specified; printed as DYLNeWGSRF) [SEQ ID NO: 30]” here?
Its value is “CTL lines were established”.

And the “CTL activities of CTL clones against the peptide-pulsed target” value (“CTL activities of CTL clones” below) [4]?
Its value is “potent and specific CTL activities”.

What about the “IFN-gamma production” value [2] of the same substance?
Its value is “potent IFN-gamma production”.

And the “Specific CTL activity against COS7 transfected with both CDH3 and HLA-A24” value ([5]; listed as CDH3-A24-10-807)?
The value was “highest specific CTL activity; also recorded: high specific CTL activity”.

Which “Establishment of CTL line” value [1] does the source give for “FILPvLGAVL (FILPVLGAVL; not fully specified; printed as FILPvLGAVL) [SEQ ID NO: 344]” here?
The value was “CTL lines were established”.

And the “CTL activities of CTL clones” value [4]?
The value was “potent and specific CTL activities”.

What about the “IFN-gamma production” value [2] of the same substance?
Its value is “potent IFN-gamma production”.

And the “Specific CTL activity against COS7 transfected with both CDH3 and HLA-A24” value ([5]; listed as CDH3-A24-10-655)?
Its value is “highest specific CTL activity; also recorded: high specific CTL activity”.

For GLNPLTSYV [SEQ ID NO: 376, GLNPLTSYV], which “Cytotoxic activity of CTL line against target cells pulsed with the peptide (Cr-release assay)” value [6] is on record?
Its value is “very potent specific cytotoxic activity”.

For KLNTEIRDV [SEQ ID NO: 379, KLNTEIRDV], which “Cytotoxic activity of CTL line against target cells pulsed with the peptide (Cr-release assay)” value [6] is on record?
Its value is “very potent specific cytotoxic activity”.

With LYLKLLPYV [SEQ ID NO: 395] as the substance, how does the “Cytotoxic activity against MIAPaca2 (Cr-release assay)” value ([7]; INHBB-positive, compared to CAki-2, listed as INHBB-A24-9-180) read?
Its value is “remarkably high cytotoxic effect; also recorded: high specific cytotoxic activity”.

And the “Cytotoxic activity against Caki-1 (Cr-release assay)” value (Caki-1 cancer cell line)?
The value was “did not show significant specific cytotoxic activity”.

With “SEQ ID NO: 178: HLA-A*2402 binding 9-mer peptide derived from KIF20A (IFSIRILHL)” as the substance, how does the “Establishment of CTL line” value [1] read?
The value was “CTL lines were established”.

And the “IFN-gamma production” value [2]?
Its value is “potent IFN-gamma production”.

And the “Specific CTL activity against COS7 transfected with both KIF20A and HLA-A24” value ([8]; listed as KIF20A-A24-9-383)?
Its value is “highest specific CTL activity; also recorded: high specific CTL activity”.

With “SEQ ID NO: 194: HLA-A*2402 binding 10-mer peptide derived from KIF20A (KVYLRVRPLL)” as the substance, how does the “Establishment of CTL line” value [1] read?
Its value is “CTL lines were established”.

What about the “CTL activities of CTL clones” value [4] of the same substance?
The value was “potent and specific CTL activities”.

And the “IFN-gamma production” value [2]?
The value was “potent IFN-gamma production”.

And the “Specific CTL activity against COS7 transfected with both KIF20A and HLA-A24” value ([8]; listed as KIF20A-A24-10-66)?
The value was “highest specific CTL activity”.

SFFEIYNELL [SEQ ID NO: 186] was tested. Which “Cytotoxic activity against MIAPaca2 (Cr-release assay)” value ([7]; Miapaca2 expressing both KIF20A and HLA-A24, listed as KIF20A-A24-10-304) did it give?
Its value is “remarkably high cytotoxic effect; also recorded: very potent specific cytotoxic activity”.

What about the “Cytotoxic activity against PK59 (Cr-release assay)” value (PK59 cancer cell line) of the same substance?
Its value is “did not show significant specific cytotoxic activity”.

“SYVEeEMPQI (SYVEEEMPQI; not fully specified; printed as SYVEeEMPQI) [SEQ ID NO: 100]” was tested. Which “Establishment of CTL line” value [1] did it give?
Its value is “CTL lines were established”.

What about the “CTL activities of CTL clones” value [4] of the same substance?
Its value is “potent and specific CTL activities”.

What about the “IFN-gamma production” value [2] of the same substance?
The value was “potent IFN-gamma production”.

What about the “Specific CTL activity against COS7 transfected with both ECT2 and HLA-A24” value ([3]; listed as ECT2-A24-10-40) of the same substance?
Its value is “highest specific CTL activity; also recorded: high specific CTL activity”.

With TLLSIFVRV [SEQ ID NO: 116] as the substance, how does the “Establishment of CTL line” value (peptide-pulsed T2 cells [9]) read?
The value was “CTL lines were established”.

What about the “IFN-gamma production” value (peptide-pulsed T2 cells [10]) of the same substance?
The value was “potent IFN-gamma production”.

And the “Specific CTL activity against COS7 transfected with both HIG2 and HLA-A02” value [11]?
The value was “highest specific CTL activity; also recorded: high specific CTL activity”.

How did the “Establishment of CTL line” value (peptide-pulsed T2 cells [9]) turn out when YLLGVVLTL [SEQ ID NO: 114] was run?
The value was “CTL lines were established”.

What about the “IFN-gamma production” value (peptide-pulsed T2 cells [10]) of the same substance?
The value was “potent IFN-gamma production”.

And the “Specific CTL activity against 293T transfected with both HIG2 and HLA-A02” value [12]?
The value was “highest specific CTL activity; also recorded: high specific CTL activity”.
